Series [1] has as its target T1, 5-HT2C receptor (Homo sapiens, UniProt P28335).
T1 sequence (P28335 33-458): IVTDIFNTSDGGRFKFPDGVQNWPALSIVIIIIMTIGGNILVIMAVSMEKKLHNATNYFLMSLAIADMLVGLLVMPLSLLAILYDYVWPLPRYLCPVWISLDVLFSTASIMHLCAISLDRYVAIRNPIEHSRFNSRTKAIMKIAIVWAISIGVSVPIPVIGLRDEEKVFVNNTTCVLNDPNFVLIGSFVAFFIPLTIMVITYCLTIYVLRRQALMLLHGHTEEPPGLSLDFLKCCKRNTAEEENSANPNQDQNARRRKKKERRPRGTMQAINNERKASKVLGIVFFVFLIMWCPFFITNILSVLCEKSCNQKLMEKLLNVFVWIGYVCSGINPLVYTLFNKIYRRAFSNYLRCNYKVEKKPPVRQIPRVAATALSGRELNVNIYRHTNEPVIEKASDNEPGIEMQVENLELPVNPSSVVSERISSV
As to the kind of experiment: Functional activity, FLIPR calcium assay in CHO cells expressing human 5-HT2C. On the set-up: expressed in transfected cells; host or cells: CHO cells. The format is cell-based. The settings on record: for Emax: CHO, read-out: h5-HT2C Relative Efficacy (%). The protocol:
(§1) The functional activity of compounds of formula (I) was assayed using a Fluorimetric Imaging Plate reader (FLIPR). CHO cells expressing the human 5-HT2C or human 5-HT2A receptors were counted and plated into standard 96 well microtitre plates on the day before testing to give a confluent monolayer. The cells were then dye loaded with the calcium sensitive dye, Fluo-3-AM. Unincorporated dye was removed using an automated cell washer to leave a total volume of 100 μL/well of assay buffer (Hanks balanced salt solution containing 20 mM Hepes and 2.5 mM probenecid). The drug (dissolved in 50 μL of the assay buffer) was added at a rate of 70 μL/sec to each well of the FLIPR 96 well plate during fluorescence measurements. The measurements were taken at 1 sec intervals and the maximum fluorescent signal was measured (approx 10-15 secs after drug addition) and compared with the response produced by 10 μM 5-HT (defined as 100%) to which it was expressed as a percentage response (relative efficacy). Dose response curves were constructed using Graphpad Prism (Graph Software Inc.).

The target of series [2] is 5-HT2A receptor (Homo sapiens, UniProt P28223). As to the kind of experiment: Functional activity, FLIPR calcium assay in CHO cells expressing human 5-HT2A. The note with it: for Emax: CHO, read-out: h5-HT2A Relative Efficacy (%). On the set-up: expressed in transfected cells; host or cells: CHO cells. The class given is cell-based. The protocol:
as §1

Setting [3] is: FLIPR, CHO cells, Fluo-3-AM, read-out: h5-HT2C EC50.

Structures are written as SMILES. Counter-ions that a name gives are not always drawn. Like-named read-outs stand apart in the source and are kept apart here.

Chain of 5-HT2A receptor (P28223 whole entry): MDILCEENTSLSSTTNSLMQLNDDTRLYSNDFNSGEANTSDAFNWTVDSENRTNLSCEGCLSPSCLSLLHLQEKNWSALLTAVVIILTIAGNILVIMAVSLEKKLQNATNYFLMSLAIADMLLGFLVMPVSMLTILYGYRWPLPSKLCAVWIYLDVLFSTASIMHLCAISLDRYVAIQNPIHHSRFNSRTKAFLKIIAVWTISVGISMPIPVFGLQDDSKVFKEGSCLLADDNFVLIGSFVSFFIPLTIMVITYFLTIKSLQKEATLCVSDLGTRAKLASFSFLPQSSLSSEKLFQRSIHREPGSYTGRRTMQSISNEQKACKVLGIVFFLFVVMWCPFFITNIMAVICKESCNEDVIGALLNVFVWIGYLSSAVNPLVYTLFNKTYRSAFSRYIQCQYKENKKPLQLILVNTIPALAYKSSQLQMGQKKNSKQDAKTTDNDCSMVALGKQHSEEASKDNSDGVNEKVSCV

On to `C[C@H](N)CN1CCc2ccc(-c3ccccc3)cc21.O=C(O)/C=C/C(=O)O`, for which the melting point lay in the range of 153 to 154 °C.
`CC(N)CN1CCc2ccc(OCc3ccccc3)cc21` (stereo not drawn): the melting point lay within 178 to 179 °C.
Compound `Cc1ccc2c(c1)N(CC(C)N)CC2` (stereo not drawn) (as salt: HCl) registered a melting point of 178 to 179 °C.
`CC(N)CN1CCc2c(OCc3ccccc3)cccc21` (stereo not drawn) (as salt: HCl): the melting point is 188 to 190 °C.
Turning to `C[C@@H](CN1CCc2ccc(Br)cc21)NCC1CC1` (as salt: HCl), the melting point was in the range of 155 to 156 °C.
Same read-out and setting: as for `CC(C)CN[C@@H](C)CN1CCc2ccc(Br)cc21` (as salt: HCl), the figure is 151 to 153 °C.
With `CC(C)CCN[C@@H](C)CN1CCc2ccc(Br)cc21` (as salt: HCl), the melting point lay within 161 to 163 °C.
With `C[C@@H](CN1CCc2ccc(Br)cc21)NCC1CCCCC1` (as salt: HCl), the melting point was in the range of 208 to 210 °C.
As for `C[C@@H](CN1CCc2ccc(Br)cc21)NCc1ccncc1` (as salt: HCl), the melting point lay within 202 to 204 °C.
Consider `CCC(N)CN1CCc2ccc(Cl)cc21` (stereo not drawn) (as salt: HCl), for which the melting point was in the range of 188 to 192 °C.
`C[C@@H](N)CN1CCc2ccc(Cl)c(Cl)c21` (as salt: fumarate) showed a melting point of 213 to 214 °C.
`COc1cccc2c1N(C[C@H](C)N)CC2` (as salt: fumarate): the melting point was 155 to 156 °C (dec.).
The compound `CN(C)CCN1CCc2ccc(Cl)cc21` (as salt: fumarate) gave a melting point of 144 to 146 °C.
Turning to `CC(N)CN1CCc2ccc(C(F)(F)F)cc21` (stereo not drawn) (as salt: fumarate), the melting point was 154 to 158 °C.
Same read-out and setting: with `CC(N)CN1CCc2cc(OCc3ccccc3)ccc21` (stereo not drawn) (as salt: fumarate) (hydrate or solvate) the figure was 143 to 144 °C; with `C[C@H](N)CN1CCc2ccc(F)cc21` (as salt: fumarate) [Example 9], 150 to 153 °C.
The compound `COc1ccc2c(c1)N(C[C@H](C)N)CC2` (as salt: fumarate) [Example 13] had a melting point of 175 to 176 °C.
As to `COc1ccc2c(c1)N(CC(C)N)CC2` (racemic) [Example 2, (RS)-1-(6-Methoxyindolin-1-yl)-2-propylamine Hydrochloride], in series [1], the EC50 stood at 100 nM and the Emax amounted to 77%. Also, in series [2], the concentration giving a half-maximal response (EC50) came to 1000 nM and the Emax is 63%.
Consider `C[C@H](N)CN1CCc2ccc(F)cc21` [Example 9], for which, in series [1], the EC50 was determined as 253 nM and the Emax came out at 89%. Also, in series [2], the EC50 came out at 5600 nM and the Emax was 52%.
For `Cc1cc2c(cc1Cl)N(C[C@H](C)N)CC2` [Example 14], the figures for the EC50 in series [1] and in series [2] were 2120 nM and 3700 nM, respectively. Besides, the Emax in series [1] came out at 71%; in series [2], 55%.
`C[C@H](N)CN1CCc2cc(F)cc(Cl)c21` [Example 17]: in series [1], the concentration giving a half-maximal response (EC50) turned out to be 616 nM and the Emax amounted to 76%. Besides, in series [2], the EC50 came to 7500 nM and the Emax came out at 40%.
Regarding `C[C@@H](N)CN1CCc2ccc(Br)cc21` [Example 18], in series [1], the EC50 stood at 870 nM and the Emax stood at 27%. Further, the Emax in series [2] was determined as 7%.
Regarding `C[C@@H](N)CN1CCc2cccc(Br)c21` [Example 19], in series [1], the EC50 was 3800 nM and the Emax was determined as 34%. In series [2], the Emax was found to be 21%.
As for `C[C@H](N)CN1CCc2cccc(Br)c21` [Example 20], the EC50 in series [1] came out at 750 nM. The Emax was 68% in series [1] and 17% in series [2].
As for `C[C@H](N)CN1CCc2ccc(Cl)c(Cl)c21` [Example 23], in series [1], the EC50 is 354 nM and the Emax worked out at 76%. In series [2], the EC50 came out at 1350 nM and the Emax is 34%.
Take `C[C@H](N)CN1CCc2ccc(Cl)c(F)c21` [Example 27]: in series [1], the EC50 was determined as 233 nM and the Emax came out at 75%. Moreover, in series [2], the EC50 stood at 1980 nM and the Emax amounted to 41%.
Consider `C[C@H](N)CN1CCc2cc(Cl)ccc21` [Example 28], for which, in series [1], the EC50 was 238 nM and the Emax came to 75%. Further, in series [2], the EC50 was 1540 nM and the Emax stood at 63%.
For `C[C@H](N)CN1CCc2cc(F)ccc21` [Example 29], the EC50 was determined as 503 nM in series [1] and 3170 nM in series [2]. Besides, the Emax in series [1] stood at 68%; in series [2], 18%.
As to `CSc1cc2c(cc1F)CCN2CC(C)N` (stereo not drawn) [Example 30], in series [1], the EC50 was 0.1 nM and the Emax stood at 95%. In series [2], the EC50 worked out at 72 nM and the Emax was 88%.
Consider `CCSc1cc2c(cc1F)CCN2C[C@H](C)N` [Example 31], for which, in series [1], the concentration for a half-maximal effect (EC50) turned out to be 2 nM and the Emax is 92%. In addition, in series [2], the half-maximal effective concentration (EC50) was 314 nM and the Emax worked out at 72%.
`Cc1cccc2c1CCN2C[C@H](C)N` [Example 32]: in series [1], the EC50 came to 611 nM and the Emax was found to be 63%. Moreover, in series [2], the EC50 is 1520 nM and the Emax was found to be 26%.
Turning to `C[C@H](N)CN1CCc2cc(Br)ccc21` [Example 33], the EC50 in series [1] was determined as 257 nM; in series [2], 2930 nM. The Emax stood at 75% in series [1] and 51% in series [2].
`C[C@H](N)CN1CCc2c(F)cccc21` [Example 35]: in series [1], the EC50 was 727 nM and the Emax stood at 51%. In addition, in series [2], the Emax is 30%.
As for `CCc1cccc2c1N(C[C@H](C)N)CC2` [Example 37], in series [1], the EC50 is 391 nM and the Emax was 69%. Further, in series [2], the 50% effective concentration (EC50) is 2730 nM and the Emax is 27%.
Taken in the same sequence, the figures for `C[C@H](N)CN1CCc2c(Cl)cccc21` [Example 38] were 320 nM, 63%, 2560 nM and 26%.
As for `CSc1ccc2c(c1)N(C[C@H](C)N)CC2` [Example 39], the EC50 in series [1] is 4 nM; in series [2] it was 260 nM. Further, the Emax was 87% in series [1] and 75% in series [2].
Taken in the same sequence, the figures for `CCSc1ccc2c(c1)N(C[C@H](C)N)CC2` [Example 40] were 3 nM, 836 nM, 95% and 64%.
As for `CCCSc1ccc2c(c1)N(C[C@H](C)N)CC2` [Example 41], in series [1], the EC50 amounted to 67 nM and the Emax was 83%.
With `CC(C)Sc1ccc2c(c1)N(C[C@H](C)N)CC2` [Example 42], in series [1], the EC50 was 54 nM and the Emax was determined as 88%. For the same compound, in series [2], the EC50 was 4200 nM and the Emax was determined as 43%.
Consider `C[C@H](N)CN1CCc2ccc(-c3cccnc3)cc21` [Example 47], for which, in series [1], the concentration for a half-maximal effect (EC50) amounted to 3540 nM and the Emax was 33%. The Emax in series [2] came out at 5%.
On to `C[C@H](N)CN1CCc2ccc(N3CCOCC3)cc21` [Example 49, (S)-1-[6-(4-Morpholinyl)indolin-1-yl]-2-propylamine Fumarate], for which the Emax was determined as 69% in series [1] and 5% in series [2]. Moreover, the 50% effective concentration (EC50) in series [1] (setting [3]) turned out to be 5480 nM.
As for `NCCN1CCc2ccc([N+](=O)[O-])cc21` [Example 53, 2-(6-Nitroindolin-1-yl)-1-ethylamine Fumarate], the Emax in series [1] amounted to 86%; in series [2] it was 20%. Besides, the EC50 worked out at 266 nM in series [1] (setting [3]) and 2310 nM in series [2] (FLIPR, CHO cells, Fluo-3-AM, read-out: h5-HT2A EC50).
For `C[C@H](N)CN1CCc2cc(F)c(C(F)(F)F)cc21` [Example 60, (S)-1-(5-Fluoro-6-trifluoromethylindolin-1-yl)-2-propylamine Fumarate], in series [1], the EC50 amounted to 36 nM and the Emax was found to be 81%.
As to `C[C@H](N)CN1CCc2cc(F)c(I)cc21` [Example 61, (S)-1-(5-Fluoro-6-iodoindolin-1-yl)-2-propylamine Fumarate], in series [1], the EC50 amounted to 26 nM and the Emax stood at 68%. In series [2], the EC50 was determined as 2180 nM and the Emax is 49%.
In the case of `Cc1cc2c(cc1F)CCN2C[C@H](C)N` [Example 62, (S)-1-(5-Fluoro-6-methylindolin-1-yl)-2-propylamine Fumarate], in series [1], the EC50 is 329 nM and the Emax is 54%.
On to `Cc1ccc2c(c1)N(C[C@H](C)N)CC2` [Example 64, (S)-1-(6-Methylindolin-1-yl)-2-propylamine Fumarate], for which, in series [1], the EC50 came to 303 nM and the Emax came to 66%. Further, the Emax in series [2] was determined as 30%.

In general, melting point refers to the temperature of the solid-liquid transition. A word on the EC50: it is the midpoint of the concentration-response curve.

The record behind these values is US6380238B1, “Indoline derivatives as 5-HT2B and or 5-HTC receptor ligands” (Vernalis Research Limited, priority 1998, dated 2002).
